Assay results published in patent US8129163B2, “Gene suitable for alcohol dehydrogenase, vector and transformant” (Kaneka Corporation, priority 2006, dated 2012).

How the values were obtained:
[1] = tested on: enzyme derived from Candida parapsilosis IFO 1396 strain; details: cited from earlier work
[2] = tested on: RMA; format: biochemical, Candida maltosa IFO 1977 strain

## O=C(O)CN(CCN(CC(=O)O)CC(=O)O)CC(=O)O [Ethylenediaminetetraacetic acid]
[1]
  inhibition of enzyme activity (in words): not inhibited
[2]
  Relative activity (%) of RMA after treatment with inhibitor: 12.9%
  inhibition of RMA (in words): inhibited
